From paper PMC12022751, “In vitro and in silico analysis of synthesized N-benzyl indole-derived hydrazones as potential anti-triple negative breast cancer agents” (RSC Advances, 2025) come the findings set out here.

Holding throughout (assay type): cell-based, human
The subject of series [1] is MDA-MB-231 breast cancer cell line. Put plainly: MTT cytotoxicity assay on MDA-MB-231. To be noted: 48 h incubation; for Viability (%) Breast cancer cell line (MDA-MB-231): test concentration for viability not stated (6.5-50 μM tested); for IC50: triplicate. The procedure:
(§1) All synthesized compounds (5a–5v) were tested using MTT assay at various concentrations (6.5 μM, 12.5 μM, 25 μM, and 50 μM) on the human breast cancer cell line MDA-MB-231. The cytotoxicity of the synthesized analogues was also assessed using human normal breast epithelial cell lines MCF-10A. Table 1 denotes IC50 values, percent inhibition, and cell viability for compounds 5a–v on MDA-MB-231. The dose–response analysis and calculations of IC50 values were performed using IBM SPSS statistics 26. The MTT assay on MDA-MB-231 confirmed the anticancer potential of all compounds. […] We then followed the same protocol as the cancer cells for the non-tumorigenic MCF-10A cells but with different concentrations (6.5 μM, 12.5 μM, 25 μM, and 50 μM). This was done to determine whether the toxic effects of the chemicals were selective for cancer cells compared to non-cancerous cells.
(§2) The in vitro cytotoxicity of the synthetic derivatives was evaluated using an MTT assay against a breast cancer cell line (MDA-MB-231).[33] The normal human breast cell line (MCF-10A) was maintained as a control in this study.[34,35] The cells were grown in DMEM with 10% FBS and 1% antibiotics (100 U mL^−1 penicillin). They were plated in a 96-well plate at a density of 1.0 × 10^4 cells per well and incubated for 24 hours at 37 °C in a 5% CO2 atmosphere. After discarding the medium, both cell lines were treated with various concentrations (6.5 μM, 12.5 μM, 25 μM, and 50 μM) of synthetic triazole derivatives.[36] After 48 h of incubation, [37] 20 μL of MTT solution (5 mg mL^−1) was added to each well and incubated for an additional 4 hours. After incubation, the medium was removed, and the formazan precipitate was dissolved in DMSO. The absorbance of the mixture was then measured at 570 nm using a microplate reader. All experiments were performed in triplicate, and the cytotoxicity was expressed as a percentage of cell viability compared to untreated control cells as per an earlier reported protocol by Sakhi et al.:[36]1 [drawing 1]
In general terms: Formazan colour is commonly taken as a measure of viable cells.

Series [2] can be described thus: MTT cytotoxicity assay on normal MCF-10A cells. The note with it: human, MCF-10A normal breast epithelial cells, 48 h incubation, test concentration for viability not stated (6.5-50 μM tested), read-out: Viability (%) Normal cell line (MCF-10A). The procedure:
as §1, §2

Series [3] deals with MCF-10A normal breast epithelial cell line. Put plainly: MTT cytotoxicity assay on normal MCF-10A cells. To be noted: Homo sapiens, MCF-10A, 48 h incubation. The procedure: as §1, §2

Broadly, the IC50 is the concentration that gives 50% inhibition. Low readings indicate inhibition by little substance, high ones a need for much substance. What is called viability is a per cent measure of how many cells are alive, often set against a control.

On to `COc1ccc(C(=O)NN=Cc2cn(Cc3ccccc3)c3ccccc23)cc1` [Compound 5a, (E)-N′-[(1-benzyl-1H-indol-3-ylmethylene]-4-methoxybenzohydrazide], for which the “Viability (%) Breast cancer cell line (MDA-MB-231)” value in series [1] is given as 32.45%. Further, the IC50 is 25.6 ± 0.4 µM in series [1] (Homo sapiens, MDA-MB-231, 48 h) and above 50 µM in series [3]. Further, the viability at 48 h in series [2] was 82.7%.
For `O=C(NN=Cc1cn(Cc2ccccc2)c2ccccc12)c1ccccc1` [Compound 5b, (E)-N′-[(1-benzyl-1H-indo1-3-yl)methylene]benzohydrazide], in that order: 18.56%, 17.2 ± 0.4 µM, above 50 µM and 77.1%.
`Cc1ccc(C(=O)NN=Cc2cn(Cc3ccccc3)c3ccccc23)cc1F` [Compound 5c, (E)-N′-((l-benzyl-1H-indo1-3-yl)methylenel-3-fluoro-4-methylbenzohydrazide]: the “Viability (%) Breast cancer cell line (MDA-MB-231)” value in series [1] was found to be 37.40%. Also, the IC50 in series [1] (Homo sapiens, MDA-MB-231, 48 h) is 27.1 ± 0.4 µM; in series [3], above 50 µM. The viability at 48 h in series [2] was determined as 85.7%.
With `O=C(Cc1ccc(C(F)(F)F)cc1)NN=Cc1cn(Cc2ccccc2)c2ccccc12` [Compound 5d, (E)-N′-[(1-benzyl-1H-indo1-3-yl)methylene]-2-(4(trifluoromethyl)phenyl)acetohydrazide], the “Viability (%) Breast cancer cell line (MDA-MB-231)” value in series [1] was found to be 27.94%. In addition, the half-inhibitory concentration (IC50) in series [1] (Homo sapiens, MDA-MB-231, 48 h) is 22.6 ± 0.8 µM; in series [3] it was above 50 µM. Also, the viability at 48 h in series [2] came out at 80.2%.
In the case of `O=C(NN=Cc1cn(Cc2ccccc2)c2ccccc12)c1cccnc1` [Compound 5e, (E)-N′-[(1-benzyl-1H-indo1-3-yl)methylene]nicotinohydrazide], the “Viability (%) Breast cancer cell line (MDA-MB-231)” value in series [1] came to 31.47%. In addition, the IC50 was 28.2 ± 0.5 µM in series [1] (Homo sapiens, MDA-MB-231, 48 h) and above 50 µM in series [3]. Further, the viability at 48 h in series [2] worked out at 85.7%.
For `O=C(NN=Cc1cn(Cc2ccccc2)c2ccccc12)c1ccc(Br)cc1` [Compound 5f, (E)-N′-[(1-benzyl-1H-indo1-3-yl)methylene]-4-bromobenzohydrazide], in that order: 25.05%, 21.8 ± 0.2 µM, above 50 µM and 82.4%.
Take `O=C(NN=Cc1cn(Cc2ccccc2)c2ccccc12)c1cc2ccccc2cc1O` [Compound 5g, (E)-N′-[(1-benzyl-1H-indo1-3-yl)methylene]-3-hydroxy-2-naphthohydrazide]: the “Viability (%) Breast cancer cell line (MDA-MB-231)” value in series [1] is 29.76%. The IC50 in series [1] (Homo sapiens, MDA-MB-231, 48 h) is 24.4 ± 0.6 µM; in series [3] it was above 50 µM. In addition, in series [2], the viability at 48 h is 81.8%.
On to `O=C(NN=Cc1cn(Cc2ccccc2)c2ccccc12)c1ccc(C(F)(F)F)cc1` [Compound 5h, (E)-N′-[(1-benzyl-1H-indo1-3-yl)methylene]-4-(trifluoromethyl)benzohydrazide], for which the “Viability (%) Breast cancer cell line (MDA-MB-231)” value in series [1] is 33.07%. Also, the IC50 in series [1] (Homo sapiens, MDA-MB-231, 48 h) is 30.8 ± 0.4 µM; in series [3], above 50 µM. Further, the viability at 48 h in series [2] is 78.1%.
With `O=C(NN=Cc1cn(Cc2ccccc2)c2ccccc12)c1ccco1` [Compound 5i, (E)-N′-[(1-benzyl-1H-indo1-3-yl)methylene]furan-2-carbohydrazide], the “Viability (%) Breast cancer cell line (MDA-MB-231)” value in series [1] turned out to be 23.53%. The IC50 is 19.2 ± 0.4 µM in series [1]; 17.2 ± 0.4 µM in series [1] (Homo sapiens, MDA-MB-231, 48 h); above 50 µM in series [3]. Also, the viability at 48 h in series [2] stood at 84.6%.
Turning to `O=C(NN=Cc1cn(Cc2ccccc2)c2ccccc12)c1cccc(Cl)c1` [Compound 5j, (E)-N′-[(1-benzyl-1H-indo1-3-yl)methylene]-3-chlorobenzohydrazide], the “Viability (%) Breast cancer cell line (MDA-MB-231)” value in series [1] was 21.87%. For the same compound, the IC50 in series [1] (Homo sapiens, MDA-MB-231, 48 h) is 22.6 ± 0.1 µM; in series [3] it was above 50 µM. In addition, the viability at 48 h in series [2] came to 80.8%.
`O=C(NN=Cc1cn(Cc2ccccc2)c2ccccc12)c1ccncc1` [Compound 5k, (E)-N′-[(1-benzyl-1H-indo1-3-yl)methylene]isonicotinohydrazide]: the “Viability (%) Breast cancer cell line (MDA-MB-231)” value in series [1] is 23.44%. In addition, the IC50 in series [1] (Homo sapiens, MDA-MB-231, 48 h) was 21.4 ± 0.2 µM; in series [3], above 50 µM. The viability at 48 h in series [2] stood at 80.1%.
With `O=C(NN=Cc1cn(Cc2ccccc2)c2ccccc12)c1ccccc1Br` [Compound 5m, (E)-N′-[(1-benzyl-1H-indo1-3-yl)methylene]-2-bromobenzohydrazide], the “Viability (%) Breast cancer cell line (MDA-MB-231)” value in series [1] is listed as 29.14%. For the same compound, the IC50 was 26.4 ± 0.2 µM in series [1] (Homo sapiens, MDA-MB-231, 48 h) and above 50 µM in series [3]. In addition, the viability at 48 h in series [2] came to 87.2%.
The like results for `O=C(Cc1ccccc1)NN=Cc1cn(Cc2ccccc2)c2ccccc12` [Compound 5n, (E)-N′-(l-benzyl-1H-indo1-3-yl)methylenel-2-phenylacetohydrazide] were, in that order, 44.16%, 43.4 ± 0.2 µM, above 50 µM and 79.8%.
In the case of `O=C(NN=Cc1cn(Cc2ccccc2)c2ccccc12)c1ccccc1Cl` [Compound 5o, (E)-N′-((l-benzyl-1H-indo1-3-yl)methylenel-2-chlorobenzohydrazide], the “Viability (%) Breast cancer cell line (MDA-MB-231)” value in series [1] amounted to 20.37%. Besides, the IC50 in series [1] (Homo sapiens, MDA-MB-231, 48 h) is 19.6 ± 0.5 µM; in series [3], above 50 µM. In series [2], the viability at 48 h is 82.3%.
The like results for `O=C(Cc1ccccc1C(F)(F)F)NN=Cc1cn(Cc2ccccc2)c2ccccc12` [Compound 5p, (E)-N′-[(1-benzyl-1H-indo1-3-yl)methylene]-2-(2-(trifluoromethyl)phenypacetohydrazide] were, in that order, 25.67%, 24.6 ± 0.1 µM, above 50 µM and 83.1%.
Turning to `O=C(Cc1ccc(F)cc1F)NN=Cc1cn(Cc2ccccc2)c2ccccc12` [Compound 5q, (E)-N′-[(1-benzyl-1H-indo1-3-yl)methylene]-2-(2,4-difluorophenypacetohydrazide], the “Viability (%) Breast cancer cell line (MDA-MB-231)” value in series [1] is 41.09%. The IC50 is 37.6 ± 0.2 µM in series [1] (Homo sapiens, MDA-MB-231, 48 h) and above 50 µM in series [3]. Further, in series [2], the viability at 48 h came out at 79.5%.
The like results for `O=C(Cc1cc(F)cc(F)c1)NN=Cc1cn(Cc2ccccc2)c2ccccc12` [Compound 5r, (E)-N′-[(1-benzyl-1H-indo1-3-yl)methylene]-2-(3,5-difluorophenyl)acetohydrazide] were, in that order, 36.18%, 31.6 ± 0.1 µM, above 50 µM and 84.1%.
The like results for `O=C(Cc1cc(F)ccc1F)NN=Cc1cn(Cc2ccccc2)c2ccccc12` [Compound 5s, (E)-N′-[(1-benzyl-1H-indo1-3-yl)methylene]-2-(2,5-difluorophenyl)acetohydrazide] were, in that order, 38.14%, 29.4 ± 0.8 µM, above 50 µM and 86.3%.
Turning to `O=C(NN=Cc1cn(Cc2ccccc2)c2ccccc12)c1cccc2ccccc12` [Compound 5u, (E)-N′-[(1-benzyl-1H-indo1-3-yl)methylene]-1-naphthohydrazide], the “Viability (%) Breast cancer cell line (MDA-MB-231)” value in series [1] is reported as 30.59%. For the same compound, the IC50 in series [1] (Homo sapiens, MDA-MB-231, 48 h) is 26.6 ± 0.1 µM; in series [3], above 50 µM. Moreover, the viability at 48 h in series [2] stood at 83.6%.
Regarding `Cc1ccccc1C(=O)NN=Cc1cn(Cc2ccccc2)c2ccccc12` [Compound 5v, (E)-N′-[(1-benzyl-1H-indo1-3-yl)methylene]-2-methylbenzohydrazide], in series [1], the “Viability (%) Breast cancer cell line (MDA-MB-231)” value stood at 28.11%. For the same compound, the 50% inhibitory concentration (IC50) in series [1] was 23.1 ± 0.6 µM; in series [1] (Homo sapiens, MDA-MB-231, 48 h), 29.4 ± 0.8 µM; in series [3] it was above 50 µM. Also, the viability at 48 h in series [2] stood at 81%.
